Like-named read-outs stand apart in the source and are kept apart here.
How the values were obtained:
[1] = molecular target: T1, Recombinant human P450 27A1 (Homo sapiens, UniProt Q02318); assay: P450 27A1 enzyme incubation: rate of 27-diol formation (GLC-MS); format: biochemical; settings: for Synthesis rate of the 27-diol metabolite: 25 nmol substrate, 37° C.; for Total 27-diol metabolite: total over 10 min; for Substrate for the enzyme CYP 27A1: human enzyme expressed in E. Coli
T1 construct: made in house; host or cells: E. coli
T1 sequence (Q02318 34-531): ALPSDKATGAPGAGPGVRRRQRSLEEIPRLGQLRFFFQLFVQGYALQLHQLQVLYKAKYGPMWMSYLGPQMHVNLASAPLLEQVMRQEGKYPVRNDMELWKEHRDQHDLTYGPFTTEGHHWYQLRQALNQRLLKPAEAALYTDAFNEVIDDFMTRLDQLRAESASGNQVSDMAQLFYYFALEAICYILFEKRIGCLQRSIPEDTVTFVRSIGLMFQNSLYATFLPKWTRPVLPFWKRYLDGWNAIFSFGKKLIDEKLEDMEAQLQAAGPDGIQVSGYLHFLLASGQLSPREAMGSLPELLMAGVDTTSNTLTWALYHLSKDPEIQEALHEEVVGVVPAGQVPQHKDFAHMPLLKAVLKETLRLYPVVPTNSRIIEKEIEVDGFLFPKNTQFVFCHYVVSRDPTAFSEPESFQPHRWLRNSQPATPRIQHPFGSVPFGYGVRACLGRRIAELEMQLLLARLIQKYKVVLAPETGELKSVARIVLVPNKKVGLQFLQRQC
Description: (§1) Recombinant human P450 27A1, recombinant bovine adrenodoxin (Adx), and recombinant bovine adrenodoxin reductase (Adr) were expressed and purified as described previously (7). P450 27A1 with a heme content of 17.6 nmol/mg protein and showing a single band upon silver-stained SDS-polyacrylamide gel electrophoresis, and Adr and Adx with the spectral purity indexes of 7.5 (A278/A450) and 0.95 (A414/A276), respectively, were used for enzymatic assays. Adr and Adx are considered to be pure with the spectral purity indexes beginning from 7.5 for Adr and 0.86 for Adx (8).
(§2) P450 27A1 activities using cholesterol, desmosterol, zymosterol, lanosterol, or […] as the substrate were assayed in 40 mM phosphate buffer, pH 7.4. Stock solutions (10 mM) of cholesterol, desmosterol, zymosterol, and […] were prepared using 45% aqueous solution of 2-hydroxypropyl-β-cyclodextrin. Reaction mixtures (1 ml) contained 0.065 nmol of P450 27A1, 0.33 nmol of Adr, 1.3 nmol of Adx, and 25 nmol of substrate, Lanosterol was dissolved in methyl-β-cyclodextrin (Sigma, St. Louis, Mo.) and the reaction mixture contained 25 nmol substrate, 0.3 nmol enzyme, 1.5 nmol Adr and 6.5 nmol Adx. Enzymatic assays, initiated by addition of 1 μmol of NADPH, were carried out at 37° C. for different time intervals, and were terminated by adding 1 ml of either CH2Cl2 or CH2Cl2 that contained coprostanol. After extraction, the steroid were taken to dryness. In some studies deuterated 27-hydroxycholesterol (9) was used as an internal standard.
(§3) For zymosterol and desmosterol, the rate of diol formation was determined at 2.5, 5.0, and 10 min by removing aliquots and adding deuterated 27-hydroxycholesterol as an internal standard. The m/z 454 area was then compared with the m/z=462 area at each time interval. Because authentic standards are not available for constructing standard curves, it was assumed that the area/mass ratios for deuterated 27-hydroxycholesterol, zymosterol and desmosterol were equal. A second approach was to quantify the rate of disappearance of substrate using coprostanol added at the end of the incubation period. In all studies a parallel incubation with the omission of adrenodoxin reductase served as a control.
(§4) The trimethylsilyl ethers were prepared using MSTFA, (Pierce, Rockford, Ill.). Methyl esters were prepared using freshly distilled diazomethane. GLC-MS analyses were done on a Shimidzu GLC 17A instrument attached to a Model 5000 mass detector. Samples were injected in the split-mode onto a ZB-1701, 30 m×0.25 mm×0.15 μm capillary column (Phenomenex, Torrance, Calif.) and temperature programming at 1° C. beginning at 240° C.

[2] = molecular target: T1, Recombinant human P450 27A1; assay: P450 27A1 enzyme incubation: disappearance of substrate, coprostanol internal standard; format: biochemical
Description: as §1, §2, §3, §4
TABLE 3 indicates the percent of zymosterol, desmosterol, and lanosterol that was metabolized compared with that of cholesterol and 7-dehydrocholesterol using coprostanol (m/z=370) as an internal standard and (−) adrenodoxin reductase as a control.

[3] = molecular target: T2, HMG CoA reductase (Homo sapiens, UniProt P04035); assay: Ubiquitination of reductase in a permeabilized cell system; format: cell-based; settings: permeabilized cells; data not shown
T2 sequence (P04035 1-888): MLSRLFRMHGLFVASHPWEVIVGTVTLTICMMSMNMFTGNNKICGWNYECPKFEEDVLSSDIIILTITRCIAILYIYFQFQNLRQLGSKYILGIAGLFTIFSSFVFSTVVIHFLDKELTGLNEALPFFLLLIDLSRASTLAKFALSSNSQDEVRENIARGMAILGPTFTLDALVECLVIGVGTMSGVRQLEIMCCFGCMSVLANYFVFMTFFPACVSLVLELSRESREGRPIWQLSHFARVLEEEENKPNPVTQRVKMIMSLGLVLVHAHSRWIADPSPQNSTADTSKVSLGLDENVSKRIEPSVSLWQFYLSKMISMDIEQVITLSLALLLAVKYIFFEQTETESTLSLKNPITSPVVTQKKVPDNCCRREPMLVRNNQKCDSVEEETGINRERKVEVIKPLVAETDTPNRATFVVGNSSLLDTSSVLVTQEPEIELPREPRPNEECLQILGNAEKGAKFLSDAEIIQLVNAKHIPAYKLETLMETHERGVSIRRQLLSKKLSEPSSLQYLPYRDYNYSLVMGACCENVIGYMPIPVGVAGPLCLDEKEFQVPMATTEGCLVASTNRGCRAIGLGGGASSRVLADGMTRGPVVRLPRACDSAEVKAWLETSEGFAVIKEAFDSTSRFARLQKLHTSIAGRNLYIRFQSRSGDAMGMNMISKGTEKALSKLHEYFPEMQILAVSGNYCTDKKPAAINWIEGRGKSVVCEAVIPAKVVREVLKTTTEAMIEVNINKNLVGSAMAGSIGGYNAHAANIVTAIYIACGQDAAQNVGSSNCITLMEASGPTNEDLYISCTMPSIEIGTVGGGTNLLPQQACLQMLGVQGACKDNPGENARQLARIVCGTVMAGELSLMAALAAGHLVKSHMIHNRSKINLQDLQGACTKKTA
Method: It was determined whether intermediates in cholesterol synthesis promote ubiquitination of reductase in a permeabilized cell system. […] The methyl and side chain hydroxyl groups of 27-hydroxylanosterol appear to act synergistically in promoting reductase ubiquitination.

[4] = system: human retinal pigment epithelial cells (ARPE19); format: cell-based
Description: We undertook to determine the effect of 27-hydroxylation of 7-ketocholesterol on the cytotoxic effect of 7-ketocholesterol. To test the general hypothesis that 27-hydroxylation of steroids markedly alters their biologic activity, the 27-hydroxy derivative of 7-ketocholesterol was synthesized from 27-hydrocholesterol using modifications of a previously published method (11). Its biologic effects on human retinal pigment epithelial cells (ARPE19) was compared to that of 7-ketocholesterol.
By contrast, retinal pigment epithelial cells maintained in the presence of 27-hydroxy-7-ketocholesterol had only a 10% reduction in viability compared to control.

[5] = molecular target: T3, LXRα (Homo sapiens, UniProt Q13133); settings: cited from earlier work
T3 sequence (Q13133 1-447): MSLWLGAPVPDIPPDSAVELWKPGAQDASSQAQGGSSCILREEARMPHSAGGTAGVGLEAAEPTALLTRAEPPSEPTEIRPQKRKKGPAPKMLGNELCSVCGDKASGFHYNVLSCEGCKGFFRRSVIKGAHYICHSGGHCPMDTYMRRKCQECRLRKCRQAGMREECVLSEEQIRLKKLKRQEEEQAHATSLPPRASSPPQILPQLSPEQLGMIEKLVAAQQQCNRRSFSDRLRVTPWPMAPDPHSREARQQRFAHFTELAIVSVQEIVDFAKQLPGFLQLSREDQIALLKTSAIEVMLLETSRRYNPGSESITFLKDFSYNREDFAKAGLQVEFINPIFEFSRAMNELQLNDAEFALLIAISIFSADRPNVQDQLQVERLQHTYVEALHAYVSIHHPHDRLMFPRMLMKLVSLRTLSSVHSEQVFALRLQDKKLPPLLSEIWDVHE

[6] = molecular target: T4, LXRβ (Homo sapiens, UniProt P55055); settings: cited from earlier work
T4 sequence (P55055 1-460): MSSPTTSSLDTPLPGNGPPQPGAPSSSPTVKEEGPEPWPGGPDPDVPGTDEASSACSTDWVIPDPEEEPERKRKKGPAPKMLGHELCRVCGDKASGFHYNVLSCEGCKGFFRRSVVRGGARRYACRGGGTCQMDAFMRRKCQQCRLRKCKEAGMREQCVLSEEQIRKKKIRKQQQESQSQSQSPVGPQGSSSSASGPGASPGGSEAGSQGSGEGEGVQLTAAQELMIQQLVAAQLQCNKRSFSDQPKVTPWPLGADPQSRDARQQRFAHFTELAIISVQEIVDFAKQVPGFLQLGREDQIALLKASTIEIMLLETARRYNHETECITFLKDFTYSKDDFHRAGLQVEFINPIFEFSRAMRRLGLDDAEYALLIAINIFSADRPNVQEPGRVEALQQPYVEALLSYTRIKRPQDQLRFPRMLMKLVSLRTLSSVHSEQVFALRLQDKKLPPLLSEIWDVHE

[7] = Adrenodoxin reductase (−) control incubation, 20 min
[8] = Adrenodoxin reductase +, 20 min
[9] = disappearance of substrate at 20 min versus incubation without adrenodoxin reductase

Compound | Synthesis rate of the 27-diol metabolite ([1]; 0-2.5 min) | Synthesis rate of the 27-diol metabolite ([1]; 2.5-5.0 min) | Synthesis rate of the 27-diol metabolite ([1]; 5.0-10 min) | Total 27-diol metabolite [1] | Stimulation of ubiquitination of reductase [3] | other results
CC(C)CCC[C@@H](C)[C@H]1CC[C@H]2C3=CC=C4C[C@@H](O)CC[C@]4(C)[C@H]3CC[C@]12C [7-Dehydrocholesterol] | 24 ng/min | 54 ng/min | 11 ng/min | 107 ng/10 min | – | Sterol/int std ratio [2, 7]: 0.95; Sterol/int std ratio [2, 8]: 0.65; Percent metabolized [2, 9]: 32%
C[C@H](CCCC(C)(C)O)[C@H]1CC[C@H]2[C@@H]3C(=O)C=C4C[C@@H](O)CC[C@]4(C)[C@H]3CC[C@]12C [7-keto-25-hydroxycholesterol] | – | – | – | – | stimulated ubiquitination of reductase | –
CC(C)CCC[C@@H](C)[C@H]1CC[C@H]2[C@@H]3C(=O)C=C4C[C@@H](O)CC[C@]4(C)[C@H]3CC[C@]12C [7-ketocholesterol] | – | – | – | – | – | Viability of retinal pigment epithelial cells ([4]; 25 μmolar): 68%; Viability of retinal pigment epithelial cells ([4]; 50 μmolar): 20%
C[C@H](CCCC(C)(C)O)[C@H]1CC[C@H]2[C@@H]3CC=C4C[C@@H](O)CC[C@]4(C)[C@H]3CC[C@]12C [25-hydroxycholesterol] | – | – | – | – | stimulated ubiquitination of reductase | –
CC(CO)CCC[C@@H](C)[C@H]1CC[C@H]2C3=CC=C4C[C@@H](O)CC[C@]4(C)[C@H]3CC[C@]12C (some centres unmarked) [27-hydroxy-7-dehydrocholesterol] | – | – | – | – | – | Expression of the nuclear receptor LXRα [5]: specifically upregulate
CC(CO)CCC[C@@H](C)[C@H]1CC[C@H]2[C@@H]3CC=C4C[C@@H](O)CC[C@]4(C)[C@H]3CC[C@]12C (some centres unmarked) [27-hydroxycholesterol] | – | – | – | – | stimulated ubiquitination of reductase | Expression of the nuclear receptor LXRβ [6]: upregulates; Expression of the nuclear receptor LXRα [5]: upregulates
CC(=CCCC(C)C1CCC2(C)C3=C(CCC12C)C1(C)CCC(O)C(C)(C)C1CC3)CO (centres unmarked) [27-hydroxylanosterol] | – | – | – | – | strongly stimulated reductase ubiquitination | Concentration giving approximately equivalent levels of reductase ubiquitination as 25 μM lanosterol [3]: 2.5 µM
CC(C)CCC[C@@H](C)[C@H]1CC[C@H]2[C@@H]3CC=C4C[C@@H](O)CC[C@]4(C)[C@H]3CC[C@]12C [Cholesterol] | 80 ng/min | 75 ng/min | 53 ng/min | 534 ng/10 min | not | Percent metabolized ([2]; human, 20 min, 25 µM, pH 7.4): 22%
CC(C)=CCC[C@@H](C)[C@H]1CC[C@H]2[C@@H]3CC=C4C[C@@H](O)CC[C@]4(C)[C@H]3CC[C@]12C [Desmosterol] | 3 ng/min | 8 ng/min | 9 ng/min | 85 ng/10 min | – | Substrate for the enzyme CYP 27A1 [1]: substrates for the enzyme; Sterol/int std ratio [2, 7]: 0.12; Sterol/int std ratio [2, 8]: 0.09; Percent metabolized [2, 9]: 25%
CC(C)=CCC[C@@H](C)[C@H]1CC[C@@]2(C)C3=C(CC[C@]12C)[C@@]1(C)CC[C@H](O)C(C)(C)[C@@H]1CC3 [Lanosterol] | – | – | – | – | potently stimulate ubiquitination of reductase | Substrate for the enzyme CYP 27A1 [1]: substrates for the enzyme
CC(C)=CCC[C@@H](C)[C@H]1CC[C@H]2C3=C(CC[C@]12C)[C@@]1(C)CC[C@H](O)C[C@@H]1CC3 [Zymosterol] | 9 ng/min | 14 ng/min | 10 ng/min | 97 ng/10 min | – | Substrate for the enzyme CYP 27A1 [1]: substrates for the enzyme

Source: patent publication US8741812B2, “Class of sterol ligands and their uses in regulation of cholesterol and gene expression” (New York University, priority 2004, dated 2014)
